From ChEMBL document CHEMBL2028040, “Malaria Box”

How the values were obtained:
Trypanosoma cruzi = assay: MMV: Inhibition of Trypanosoma cruzi (Tulahuen C4 LacZ) (Chagas in vitro).; assay type: functional, organism-based
Leishmania infantum = assay: MMV: Inhibition of Leishmania infantum (MHOM/MA/BE/67) in vitro.; assay type: functional, organism-based
[1] = test system: Trypanosoma brucei rhodesiense; assay: MMV: Inhibition of Trypanosoma brucei rhodesiense (STIB 900) (HAT in vitro).; assay type: functional, organism-based
[2] = test system: Trypanosoma brucei brucei; assay: MMV: Inhibition of Trypanosoma brucei brucei (Squib 427) (HAT in vitro).; assay type: functional, organism-based
Plasmodium falciparum = assay: MMV: Inhibition of Plasmodium falciparum 3D7 (EC50).; assay type: functional, organism-based
[3] = MMV: Cytotoxicity against human fibroblasts (MRC-5) cells.; conditions: MRC-5 cells (human fibroblasts)

Row | Structure (SMILES) | IC50 (Trypanosoma cruzi) [µM] | IC50 (Leishmania infantum) [µM] | IC50 [1] [µM] | IC50 [2] [µM] | EC50 (Plasmodium falciparum) [µM] | IC50 [3] [µM]
1 | COc1ccc2nc(C)cc(Nc3ccccc3O)c2c1 | > 32 | > 32 | > 32 | > 32 | 0.686 | > 32
2 | CN1CCN(c2nc(Nc3ccc(O)cc3)nc3ccccc23)CC1 | 11.1 | 13.6 | 3.28 | 4.69 | 1.43 | > 32
3 | CCN(CC)CCNc1ccnc2cc3ccccc3cc12 | 14.8 | 4.32 | 3.94 | 4.06 | 0.391 | 12.2
4 | COc1cccc(Cn2c(Oc3ccccc3)nc3c2c(=O)n(C)c(=O)n3C)c1 | > 32 | > 32 | > 32 | > 32 | 1.39 | > 32
5 | CCOC(=O)c1cnc2ccc(CC)cc2c1O | > 32 | > 32 | > 32 | > 32 | 0.351 | > 32
6 | COc1ccc(-c2nc(N3CCN(C(=O)C4CCCCC4)CC3)c3c4c(sc3n2)CCCC4)cc1 | 7.45 | 4.32 | 4.07 | 4.09 | 1.06 | > 32
7 | CCN(CC)CCNc1ccnc2cc(Cl)ccc12 | 6.35 | 17.3 | 10.3 | 10.2 | 0.0581 | > 32
8 | CCn1nc(-c2ccc(C(=O)OC)cc2)nc2c(=O)n(C)c(=O)nc1-2 | 0.81 | 4.06 | 0.803 | 0.28 | 0.693 | 3.53
9 | COc1cc(C(=O)Nc2nc3c(cc4c5c(cccc53)CC4)s2)cc(OC)c1OC | > 32 | 16.2 | > 32 | > 32 | 0.898 | > 32
10 | COc1cccc(Nc2nc(NCCO)c3ccccc3n2)c1 | 13.3 | 4.32 | 6.75 | 14.3 | 0.854 | 26.3
11 | O=C(NCC(c1ccsc1)N1CCCCCC1)c1ccc(C(F)(F)F)cc1 (stereo not drawn) | 22.5 | 16.1 | 1.7 | 16.1 | 0.433 | > 32
12 | COc1ccc2c(c1)C1(Nc3ccccc3-c3nc4ccccc4n31)C(=O)N2 (stereo not drawn) | > 32 | > 32 | > 32 | > 32 | 0.928 | > 32
13 | CC(C)(C)CC(C)(C)NCC(O)COc1ccc(Cl)cc1Cl (stereo not drawn) | 12.2 | 6.35 | 4.06 | 4 | 1.16 | 16.1
14 | O=C(O)C1Cc2c([nH]c3ccccc23)C(c2ccc(Cl)cc2Cl)N1 (stereo not drawn) | > 32 | > 32 | > 32 | > 32 | 0.35 | > 32
15 | COc1ccc(C2c3ccc4ccccc4c3Oc3ncn(CCCn4ccnc4)c(=N)c32)cc1OC (stereo not drawn) | 4.2 | 5.38 | 1.8 | 15.5 | 1.79 | 10.1
16 | COC(=O)c1ccc(Cl)c2c1C1C=CCC1C(c1cccc3ccccc13)N2 (stereo not drawn) | 13.5 | 17.3 | 11.9 | 16 | 0.939 | > 32
17 | CCN(CC)CCNc1ncnc2c1[nH]c1ccc(Br)cc12 | 17.1 | 16 | 16 | 16.3 | 0.707 | > 32
18 | Cc1cc(N2CCCC2)nc(Nc2ccc(NC(=O)CCc3ccccc3)cc2)n1 | 1.01 | 1.19 | 0.871 | 4.3 | 1.07 | 5.38
19 | Cc1cc(N2CCN(C3CCCC3)CC2)n2c(nc3ccccc32)c1C#N | > 32 | > 32 | > 32 | > 32 | 0.683 | > 32
20 | COc1ccc(CCN2C(=O)c3[nH]nc(-c4cc(Cl)c(C)cc4O)c3C2c2ccccc2F)cc1 (stereo not drawn) | 12.9 | 12 | 3.56 | 4 | 0.916 | > 32
21 | OC1=C2C(=Nc3ccccc3SC2c2ccccc2)c2ccccc21 (stereo not drawn) | 13.9 | 16.2 | 3.56 | 4.15 | 0.89 | 15.7
22 | Cc1cc(C)cc(Nc2cc(C)nc3nc(C(F)(F)F)nn23)c1 | > 32 | > 32 | > 32 | > 32 | 0.0857 | > 32
23 | CCOc1c(Cl)cc(CNCC(O)c2ccccc2)cc1OC (stereo not drawn) | > 32 | > 32 | 16.1 | 11.9 | 1.05 | > 32
